From PMC11637875, “Discovery of novel PARP1/NRP1 dual-targeting inhibitors with strong antitumor potency” (Frontiers in Pharmacology, 2024)

What was measured:
AurB = AurB (Homo sapiens, UniProt Q96GD4); assay: Selectivity profile (123 kinase panel); type: biochemical
BMX = BMX (Homo sapiens, UniProt P51813); assay: Selectivity profile (123 kinase panel); type: biochemical
PARP8 [1] = target: T1, PARP8 (Homo sapiens, UniProt Q8N3A8); assay: Selectivity profile (other isoforms of PARP and NRP family); type: biochemical
HIPK4 = HIPK4 (Homo sapiens, UniProt Q8NE63); assay: Selectivity profile (123 kinase panel); type: biochemical
CLK3 = CLK3 (Homo sapiens, UniProt P49761); assay: Selectivity profile (123 kinase panel); type: biochemical
EPHA7 = EPHA7 (Homo sapiens, UniProt Q15375); assay: Selectivity profile (123 kinase panel); type: biochemical
Erk1 = Erk1 (Homo sapiens, UniProt P27361); assay: Selectivity profile (123 kinase panel); type: biochemical
MINK = MINK (Homo sapiens, UniProt Q8N4C8); assay: Selectivity profile (123 kinase panel); type: biochemical
DCAMKL2 = DCAMKL2 (Homo sapiens, UniProt Q8N568); assay: Selectivity profile (123 kinase panel); type: biochemical
MRCKα = MRCKα (Homo sapiens, UniProt Q5VT25); assay: Selectivity profile (123 kinase panel); type: biochemical
PARP9 = PARP9 (Homo sapiens, UniProt Q8IXQ6); assay: Specificity testing by MST assay; type: binding
Description: (§1) All samples were diluted in 1 × PBST. […] Affinity Analysis software.

NRP2 = NRP2 (Homo sapiens, UniProt O60462); assay: Specificity testing by MST assay; type: binding
Description: as §1

PARP2 [2] = target: T2, PARP2 (Homo sapiens, UniProt Q9UGN5); assay: Specificity testing by MST assay; type: binding
Description: as §1

PARP15 [3] = target: T3, PARP15 (Homo sapiens, UniProt Q460N3); assay: Specificity testing by MST assay; type: binding
Description: as §1

PARP8 [4] = target: T1, PARP8; assay: Specificity testing by MST assay; type: binding
Description: as §1

PARP12 = PARP12 (Homo sapiens, UniProt Q9H0J9); assay: Specificity testing by MST assay; type: binding
Description: as §1

PARP14 = PARP14 (Homo sapiens, UniProt Q460N5); assay: Specificity testing by MST assay; type: binding
Description: as §1

PARP13 = PARP13 (Homo sapiens, UniProt Q7Z2W4); assay: Specificity testing by MST assay; type: binding
Description: as §1

PARP7 = PARP7 (Homo sapiens, UniProt Q7Z3E1); assay: Specificity testing by MST assay; type: binding
Description: as §1

CHEK2 = CHEK2 (Homo sapiens, UniProt O96017); assay: Specificity testing by MST assay; type: binding
Description: as §1

RAD51 = RAD51 (Homo sapiens, UniProt Q06609); assay: Specificity testing by MST assay; type: binding
Description: as §1

PARP10 = PARP10 (Homo sapiens, UniProt Q53GL7); assay: Specificity testing by MST assay; type: binding
Description: as §1

PARP3 = PARP3 (Homo sapiens, UniProt Q9Y6F1); assay: Specificity testing by MST assay; type: binding
Description: as §1

ATR = ATR (Homo sapiens, UniProt Q13535); assay: Specificity testing by MST assay; type: binding
Description: as §1

PARP15 [5] = target: T3, PARP15; assay: Selectivity profile (other isoforms of PARP and NRP family); type: biochemical
ABL2 = ABL2 (Homo sapiens, UniProt P42684); assay: Selectivity profile (123 kinase panel); type: biochemical
EPHB3 = EPHB3 (Homo sapiens, UniProt P54753); assay: Selectivity profile (123 kinase panel); type: biochemical
FLT4 = FLT4 (Homo sapiens, UniProt P35916); assay: Selectivity profile (123 kinase panel); type: biochemical
ABL1 = ABL1 (Homo sapiens, UniProt P00519); assay: Selectivity profile (123 kinase panel); type: biochemical
[6] = system: MDA-MB-231 xenograft tumor; assay: In vivo antitumor assay; set-up: species or system BALB/c nude mice; details: for body weight (g) in mice, mean / tumor volume (mm^3), mean: 5 mg/kg intraperitoneally every 3 days, n = 6
Description: Twenty-four female BALB/c nude mice (body weight 16–20 g) at 4–6 weeks old were purchased from Changzhou Cavens Experimental Animal Limited Company (Changzhou, China). Mice were adaptively housed for 1 week in a specific pathogen-free (SPF) environment with a temperature of 25°C ± 2°C, a 12-hour light/dark cycle, and free access to food and water. MDA-MB-231 breast cancer cells (200 μL, 1×10^7 cells) were suspended in PBS to formulate cell suspension, and 0.1 mL of cells were injected into the axilla of the left forelimb of mice by subcutaneous injection. […] Equal concentrations of drug-free PBS buffer were used for the vehicle group. Each group was administered every 3 days and the body weight and tumor size of the mice were recorded. Mice were executed when the tumor volume approached 2000 mm^3. Tumor volumes of all mice were measured using vernier calipers. The mice were placed belly up and the longest diameter of the tumor was measured with the inner bayonet of a vernier caliper, and the shortest transverse diameter perpendicular to the diameter was measured with the inner bayonet of a vernier caliper and recorded. Tumor volume was estimated according to the following formula: (c × c × d)/2 (c, the smallest diameter; d, the largest diameter). All animal experiments were performed and approved by the Ethics Committee of China Pharmaceutical University.

PARP2 [7] = target: T2, PARP2; assay: Selectivity profile (other isoforms of PARP and NRP family); type: biochemical
ALK6 = ALK6 (Homo sapiens, UniProt O00238); assay: Selectivity profile (123 kinase panel); type: biochemical

T1 sequence (Q8N3A8 whole entry, canonical isoform): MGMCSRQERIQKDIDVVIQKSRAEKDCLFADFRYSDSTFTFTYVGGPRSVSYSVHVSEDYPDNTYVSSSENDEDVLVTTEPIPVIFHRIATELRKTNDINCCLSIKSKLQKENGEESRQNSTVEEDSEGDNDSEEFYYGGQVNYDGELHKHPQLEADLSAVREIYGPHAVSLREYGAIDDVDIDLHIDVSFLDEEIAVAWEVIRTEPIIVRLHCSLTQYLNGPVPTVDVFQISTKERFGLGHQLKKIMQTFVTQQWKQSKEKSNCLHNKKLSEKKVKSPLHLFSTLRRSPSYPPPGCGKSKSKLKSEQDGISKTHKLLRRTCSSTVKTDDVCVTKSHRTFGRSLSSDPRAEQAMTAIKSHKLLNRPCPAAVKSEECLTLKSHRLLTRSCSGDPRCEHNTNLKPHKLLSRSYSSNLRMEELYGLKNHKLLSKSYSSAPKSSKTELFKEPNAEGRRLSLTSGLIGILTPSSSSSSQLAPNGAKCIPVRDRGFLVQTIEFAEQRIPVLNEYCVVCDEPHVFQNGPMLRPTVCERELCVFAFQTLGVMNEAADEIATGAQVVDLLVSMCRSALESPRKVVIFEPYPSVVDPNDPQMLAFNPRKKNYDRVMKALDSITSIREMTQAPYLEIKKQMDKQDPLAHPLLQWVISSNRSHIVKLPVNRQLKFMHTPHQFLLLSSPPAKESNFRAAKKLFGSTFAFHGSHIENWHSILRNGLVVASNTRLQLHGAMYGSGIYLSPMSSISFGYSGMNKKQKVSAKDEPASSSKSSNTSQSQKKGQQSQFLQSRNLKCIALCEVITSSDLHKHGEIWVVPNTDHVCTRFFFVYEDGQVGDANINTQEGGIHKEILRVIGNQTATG
T2 sequence (Q9UGN5 whole entry): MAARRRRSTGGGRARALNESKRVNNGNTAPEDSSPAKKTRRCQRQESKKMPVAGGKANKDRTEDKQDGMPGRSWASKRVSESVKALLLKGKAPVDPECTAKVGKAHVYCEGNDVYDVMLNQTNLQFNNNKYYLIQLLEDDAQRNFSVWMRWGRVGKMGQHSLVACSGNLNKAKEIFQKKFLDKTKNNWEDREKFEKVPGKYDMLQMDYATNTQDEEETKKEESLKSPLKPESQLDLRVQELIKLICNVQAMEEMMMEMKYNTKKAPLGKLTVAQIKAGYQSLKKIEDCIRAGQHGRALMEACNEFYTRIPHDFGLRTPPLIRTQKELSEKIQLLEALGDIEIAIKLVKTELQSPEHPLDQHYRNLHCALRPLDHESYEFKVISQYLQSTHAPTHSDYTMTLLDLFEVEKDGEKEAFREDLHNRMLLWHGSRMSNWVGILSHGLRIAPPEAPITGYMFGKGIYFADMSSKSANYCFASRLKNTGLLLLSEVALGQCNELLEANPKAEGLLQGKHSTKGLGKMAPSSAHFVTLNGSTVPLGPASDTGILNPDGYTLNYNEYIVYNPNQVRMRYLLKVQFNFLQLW
T3 sequence (Q460N3 whole entry): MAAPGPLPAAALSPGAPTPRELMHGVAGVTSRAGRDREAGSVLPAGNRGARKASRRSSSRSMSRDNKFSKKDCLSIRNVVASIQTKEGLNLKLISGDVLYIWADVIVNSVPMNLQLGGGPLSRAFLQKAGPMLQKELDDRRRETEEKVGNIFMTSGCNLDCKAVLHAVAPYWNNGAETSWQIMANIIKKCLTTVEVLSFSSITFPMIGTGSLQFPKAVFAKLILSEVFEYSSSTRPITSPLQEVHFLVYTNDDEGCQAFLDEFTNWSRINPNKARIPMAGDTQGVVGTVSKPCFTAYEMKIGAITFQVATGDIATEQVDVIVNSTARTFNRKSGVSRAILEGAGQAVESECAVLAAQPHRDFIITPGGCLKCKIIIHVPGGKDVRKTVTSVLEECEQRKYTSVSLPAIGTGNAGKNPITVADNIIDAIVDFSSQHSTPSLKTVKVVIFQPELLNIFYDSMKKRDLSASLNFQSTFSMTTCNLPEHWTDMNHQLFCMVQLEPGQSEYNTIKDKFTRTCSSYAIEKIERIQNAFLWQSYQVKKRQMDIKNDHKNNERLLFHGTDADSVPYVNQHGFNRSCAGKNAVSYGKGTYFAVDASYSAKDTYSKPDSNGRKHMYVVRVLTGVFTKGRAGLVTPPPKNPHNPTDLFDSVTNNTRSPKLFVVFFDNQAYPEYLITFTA
Sequence of DCAMKL2 (Q8N568 whole entry): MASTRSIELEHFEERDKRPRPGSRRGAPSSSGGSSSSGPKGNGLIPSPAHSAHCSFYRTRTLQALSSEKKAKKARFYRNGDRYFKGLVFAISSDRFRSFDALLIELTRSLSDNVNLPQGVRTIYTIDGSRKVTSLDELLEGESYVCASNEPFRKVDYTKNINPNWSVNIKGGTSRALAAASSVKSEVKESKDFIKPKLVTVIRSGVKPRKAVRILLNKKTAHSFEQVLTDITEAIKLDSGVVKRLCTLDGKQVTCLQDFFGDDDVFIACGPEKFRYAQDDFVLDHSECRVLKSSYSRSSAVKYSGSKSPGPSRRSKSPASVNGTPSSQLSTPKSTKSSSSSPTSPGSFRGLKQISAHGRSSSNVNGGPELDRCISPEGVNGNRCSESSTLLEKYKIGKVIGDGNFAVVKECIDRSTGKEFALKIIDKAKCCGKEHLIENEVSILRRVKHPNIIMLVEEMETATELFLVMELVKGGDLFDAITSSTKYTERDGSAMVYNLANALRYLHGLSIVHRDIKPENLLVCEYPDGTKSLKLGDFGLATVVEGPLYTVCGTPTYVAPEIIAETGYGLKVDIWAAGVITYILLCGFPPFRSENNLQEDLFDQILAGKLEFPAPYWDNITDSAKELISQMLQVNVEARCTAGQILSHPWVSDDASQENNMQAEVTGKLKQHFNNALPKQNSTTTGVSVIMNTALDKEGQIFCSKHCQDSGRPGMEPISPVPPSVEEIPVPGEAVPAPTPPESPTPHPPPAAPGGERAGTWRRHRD
Sequence of PARP7 (Q7Z3E1 whole entry): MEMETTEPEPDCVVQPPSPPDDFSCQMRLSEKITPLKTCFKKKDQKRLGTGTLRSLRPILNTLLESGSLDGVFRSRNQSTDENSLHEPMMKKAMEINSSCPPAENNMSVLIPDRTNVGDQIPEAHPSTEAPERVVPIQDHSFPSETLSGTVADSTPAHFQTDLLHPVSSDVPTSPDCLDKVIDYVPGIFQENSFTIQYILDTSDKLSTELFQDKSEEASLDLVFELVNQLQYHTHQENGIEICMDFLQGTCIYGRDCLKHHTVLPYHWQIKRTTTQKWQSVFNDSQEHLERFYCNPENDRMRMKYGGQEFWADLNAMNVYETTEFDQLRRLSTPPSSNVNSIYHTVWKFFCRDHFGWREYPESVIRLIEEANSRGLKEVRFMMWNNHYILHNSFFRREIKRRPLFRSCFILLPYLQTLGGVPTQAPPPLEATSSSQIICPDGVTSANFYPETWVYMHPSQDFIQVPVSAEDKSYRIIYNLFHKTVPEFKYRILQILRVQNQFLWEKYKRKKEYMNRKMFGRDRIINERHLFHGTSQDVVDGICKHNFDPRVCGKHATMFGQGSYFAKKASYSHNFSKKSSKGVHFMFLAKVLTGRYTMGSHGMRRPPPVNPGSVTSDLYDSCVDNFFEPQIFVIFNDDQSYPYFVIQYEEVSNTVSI
Sequence of RAD51 (Q06609 whole entry): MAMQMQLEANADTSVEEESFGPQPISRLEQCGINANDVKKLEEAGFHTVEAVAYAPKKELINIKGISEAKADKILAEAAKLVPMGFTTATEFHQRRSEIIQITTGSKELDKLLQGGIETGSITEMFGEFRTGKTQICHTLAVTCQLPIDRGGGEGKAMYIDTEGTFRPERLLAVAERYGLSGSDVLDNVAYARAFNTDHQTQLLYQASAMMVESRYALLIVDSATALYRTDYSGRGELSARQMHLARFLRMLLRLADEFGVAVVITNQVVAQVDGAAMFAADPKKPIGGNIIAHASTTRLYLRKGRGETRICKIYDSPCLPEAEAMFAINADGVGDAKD
Sequence of HIPK4 (Q8NE63 whole entry): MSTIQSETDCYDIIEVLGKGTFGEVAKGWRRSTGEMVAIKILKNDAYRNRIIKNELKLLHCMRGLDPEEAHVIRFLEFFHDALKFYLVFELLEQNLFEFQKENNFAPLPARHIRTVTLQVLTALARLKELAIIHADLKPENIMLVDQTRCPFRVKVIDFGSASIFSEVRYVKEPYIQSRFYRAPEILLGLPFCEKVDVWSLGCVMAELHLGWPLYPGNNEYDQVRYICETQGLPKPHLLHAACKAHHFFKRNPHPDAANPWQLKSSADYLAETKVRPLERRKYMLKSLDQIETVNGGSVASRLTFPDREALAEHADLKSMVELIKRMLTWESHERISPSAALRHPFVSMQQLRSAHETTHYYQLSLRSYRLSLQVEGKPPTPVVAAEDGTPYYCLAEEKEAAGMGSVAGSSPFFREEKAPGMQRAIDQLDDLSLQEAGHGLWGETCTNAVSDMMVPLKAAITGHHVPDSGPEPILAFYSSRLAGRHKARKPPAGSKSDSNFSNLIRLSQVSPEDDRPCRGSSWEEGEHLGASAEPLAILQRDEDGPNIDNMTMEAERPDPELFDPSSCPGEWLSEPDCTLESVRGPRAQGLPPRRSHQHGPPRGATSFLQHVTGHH
Sequence of AurB (Q96GD4 whole entry): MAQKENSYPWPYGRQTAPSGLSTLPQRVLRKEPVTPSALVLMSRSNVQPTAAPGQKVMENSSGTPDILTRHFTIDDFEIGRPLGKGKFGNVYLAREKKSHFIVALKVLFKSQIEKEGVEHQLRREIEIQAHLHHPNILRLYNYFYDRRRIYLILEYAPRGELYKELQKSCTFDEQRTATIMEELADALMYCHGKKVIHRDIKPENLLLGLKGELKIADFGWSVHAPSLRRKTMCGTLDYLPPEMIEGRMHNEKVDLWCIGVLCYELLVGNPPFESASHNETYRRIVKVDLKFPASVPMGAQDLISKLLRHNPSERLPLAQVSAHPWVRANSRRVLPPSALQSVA

IC50 (AurB): > 10 µM
IC50 (BMX): > 10 µM
IC50 (PARP8 [1]): > 10 µM
IC50 (HIPK4): > 10 µM
IC50 (CLK3): > 10 µM
IC50 (EPHA7): > 10 µM
IC50 (Erk1): > 10 µM
IC50 (MINK): > 10 µM
IC50 (DCAMKL2): > 10 µM
IC50 (MRCKα): > 10 µM
Kd (PARP9): > 10 µM
Kd (NRP2): > 10 µM
Kd (PARP2 [2]): > 10 µM
Kd (PARP15 [3]): > 10 µM
Kd (PARP8 [4]): > 10 µM
Kd (PARP12): > 10 µM
Kd (PARP14): > 10 µM
Kd (PARP13): > 10 µM
Kd (PARP7): > 10 µM
Kd (CHEK2): > 10 µM
Kd (RAD51): > 10 µM
Kd (PARP10): > 10 µM
Kd (PARP3): > 10 µM
Kd (ATR): > 10 µM
IC50 (PARP15 [5]): > 10 µM
IC50 (ABL2): > 10 µM
IC50 (EPHB3): > 10 µM
IC50 (FLT4): > 10 µM
IC50 (ABL1): > 10 µM
IC50 (PARP2 [7]): > 10 µM
IC50 (ALK6): > 10 µM
SMILES: NC(N)=NCCC[C@H](NCN1CCN(C(=O)c2cc(Cc3n[nH]c(=O)c4ccccc34)ccc2F)CC1)C(=O)O [PPNR-4]
inhibitory effect on tumor volume growth ([6]; 5 mg/kg, in comparison to the olaparib or EG00229-treated groups): more remarkable inhibitory effect on tumor volume growth
body weight (g) in mice, mean ([6]; day 0): 18.41 g
tumor volume (mm^3), mean ([6]; day 0): 99 mm^3
body weight (g) in mice, mean ([6]; day 3): 18.62 g
tumor volume (mm^3), mean ([6]; day 3): 155 mm^3
body weight (g) in mice, mean ([6]; day 6): 18.85 g
tumor volume (mm^3), mean ([6]; day 6): 196 mm^3
body weight (g) in mice, mean ([6]; day 9): 19.07 g
tumor volume (mm^3), mean ([6]; day 9): 253 mm^3
body weight (g) in mice, mean ([6]; day 12): 19.33 g
tumor volume (mm^3), mean ([6]; day 12): 226 mm^3
